According to ChEMBL document CHEMBL2390880, “Influence of 4- or 5-substituents on the pyrrolidine ring of 5-[1-(2-methoxymethylpyrrolidinyl)sulfonyl]isatin derivatives on their inhibitory activities towards caspases-3 and -7” (Eur J Med Chem, 2013):

Experiments:
[1] = biological target: T1, Caspase-7 (Homo sapiens, UniProt P55210); assay: Inhibition of human recombinant caspase-7 using Ac-DEVD-AMC as substrate assessed as accumulation of AMC preincubated for 10 mins followed by substrate addition measured after 10 mins by fluorescence assay
T1 sequence (P55210 whole entry): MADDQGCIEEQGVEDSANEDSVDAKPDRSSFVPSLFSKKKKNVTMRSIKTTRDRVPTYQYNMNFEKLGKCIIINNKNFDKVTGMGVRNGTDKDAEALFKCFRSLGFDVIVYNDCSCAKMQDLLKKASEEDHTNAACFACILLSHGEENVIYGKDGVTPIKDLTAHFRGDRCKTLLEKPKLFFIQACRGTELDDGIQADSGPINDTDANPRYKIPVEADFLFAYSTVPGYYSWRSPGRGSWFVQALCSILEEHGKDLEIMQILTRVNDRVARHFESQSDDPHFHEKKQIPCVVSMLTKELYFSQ

[2] = biological target: T2, Caspase-3 (Homo sapiens, UniProt P42574); assay: Inhibition of human recombinant caspase-3 using Ac-DEVD-AMC as substrate assessed as accumulation of AMC preincubated for 10 mins followed by substrate addition measured after 10 mins by fluorescence assay
T2 sequence (P42574 whole entry): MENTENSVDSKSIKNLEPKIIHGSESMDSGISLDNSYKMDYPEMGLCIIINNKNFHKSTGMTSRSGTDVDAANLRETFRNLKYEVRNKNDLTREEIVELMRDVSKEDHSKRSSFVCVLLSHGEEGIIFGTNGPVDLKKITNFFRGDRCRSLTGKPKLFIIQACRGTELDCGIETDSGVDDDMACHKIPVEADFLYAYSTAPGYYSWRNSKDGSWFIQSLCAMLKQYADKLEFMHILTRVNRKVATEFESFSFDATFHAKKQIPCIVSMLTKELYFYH

Structure (SMILES)	IC50 [1]	IC50 [2]
COC[C@@H]1C[C@@H](OC)CN1S(=O)(=O)c1ccc2c(c1)C(=O)C(=O)N2	> 500 µM	> 500 µM
COC[C@@H]1C[C@H](OC)CN1S(=O)(=O)c1ccc2c(c1)C(=O)C(=O)N2	> 500 µM	> 500 µM
COC[C@@H]1C[C@H](OCCOCCOCCOCCO)CN1S(=O)(=O)c1ccc2c(c1)C(=O)C(=O)N2	> 500 µM	> 500 µM
COC[C@H]1CC[C@@H](COC)N1S(=O)(=O)c1ccc2c(c1)C(=O)C(=O)N2	> 500 µM	> 500 µM
COC[C@@H]1C[C@@H](OCCOCCOCCOCCO)CN1S(=O)(=O)c1ccc2c(c1)C(=O)C(=O)N2	> 500 µM	> 500 µM
COC[C@@H]1C[C@@H](C(F)(F)F)CN1S(=O)(=O)c1ccc2c(c1)C(=O)C(=O)N2	> 500 µM	> 500 µM
COC[C@@H]1C[C@H](C(F)(F)F)CN1S(=O)(=O)c1ccc2c(c1)C(=O)C(=O)N2	–	101 µM
CCCCN1C(=O)C(=O)c2cc(S(=O)(=O)N3C[C@@H](OCCOCCOCCOCCO)C[C@H]3COC)ccc21	> 500 µM	> 500 µM
COC[C@@H]1CC[C@@H](COC)N1S(=O)(=O)c1ccc2c(c1)C(=O)C(=O)N2	> 500 µM	> 500 µM
